Test results: ChEMBL document CHEMBL4831531, “Mangostanin Derivatives as Novel and Orally Active Phosphodiesterase 4 Inhibitors for the Treatment of Idiopathic Pulmonary Fibrosis with Improved Safety” (J Med Chem, 2021)
Converted amounts (≈) assume the structure as drawn. The source made the active and inactive calls. No cut-off for these calls is given here.

Experiments:
[1] = molecular target: 3',5'-cyclic-AMP phosphodiesterase 4B (Homo sapiens, UniProt Q07343); assay: Inhibition of PDE4B2 (152-487) (unknown origin) expressed in Escherichia coli BL21 assessed as using [3H]-cAMP as substrate measured for 15 mins by liquid scintillation counting analysis
[2] = molecular target: cGMP-inhibited 3',5'-cyclic phosphodiesterase 3A (Homo sapiens, UniProt Q14432); assay: Inhibition of PDE3A (679-1087) (unknown origin) expressed in Escherichia coli BL21 assessed as using [3H]-cAMP as substrate measured for 15 mins by liquid scintillation counting analysis
[3] = molecular target: High affinity cAMP-specific and IBMX-insensitive 3',5'-cyclic phosphodiesterase 8A (Homo sapiens, UniProt O60658); assay: Inhibition of PDE8A1 (480-828) (unknown origin) expressed in Escherichia coli BL21 assessed as using [3H]-cAMP as substrate measured for 15 mins by liquid scintillation counting analysis
[4] = molecular target: High affinity cGMP-specific 3',5'-cyclic phosphodiesterase 9A (Homo sapiens, UniProt O76083); assay: Inhibition of PDE9A2 (181-506) (unknown origin) expressed in Escherichia coli BL21 assessed as using […] as substrate measured for 15 mins by liquid scintillation counting analysis
[5] = molecular target: cAMP and cAMP-inhibited cGMP 3',5'-cyclic phosphodiesterase 10A (Homo sapiens, UniProt Q9Y233); assay: Inhibition of PDE10A2 (449-770) (unknown origin) expressed in Escherichia coli BL21 assessed as using [3H]-cAMP as substrate measured for 15 mins by liquid scintillation counting analysis
[6] = Half life in Sprague-Dawley rat at 5 mg/kg, po; type: ADME, organism-based; details: in vivo
[7] = Half life in Sprague-Dawley rat at10 mg/kg, po; type: ADME, organism-based; details: in vivo, dose 10 mg/kg
[8] = Tmax in Sprague-Dawley rat at 10 mg/kg, po; type: ADME, organism-based; details: in vivo
[9] = Cmax in Sprague-Dawley rat at 5 mg/kg, po; type: ADME, organism-based; design: route oral, dose 5 mg/kg; details: in vivo
[10] = AUC (0 to t) in Sprague-Dawley rat at 5 mg/kg, po; type: ADME, organism-based; design: dose 5 mg/kg; details: in vivo
[11] = AUC (0 to t) in Sprague-Dawley rat at 10 mg/kg, po; type: ADME, organism-based; design: dose 10 mg/kg; details: in vivo
[12] = AUC (0 to infinity) in Sprague-Dawley rat at 5 mg/kg, po; type: ADME, organism-based; design: route oral, time infinity, dose 5 mg/kg; details: in vivo
[13] = AUC (0 to infinity) in Sprague-Dawley rat at 10 mg/kg, po; type: ADME, organism-based; design: route oral, time infinity, dose 10 mg/kg; details: in vivo
[14] = molecular target: Voltage-gated inwardly rectifying potassium channel KCNH2 (Homo sapiens, UniProt Q12809); assay: Inhibition of human ERG
Cytochrome P450 1A2 = molecular target: T1, Cytochrome P450 1A2 (Homo sapiens, UniProt P05177); assay: Inhibition of human hepatic CYP1A2; type: ADME, tissue-based, Liver
T1 sequence (P05177 whole entry): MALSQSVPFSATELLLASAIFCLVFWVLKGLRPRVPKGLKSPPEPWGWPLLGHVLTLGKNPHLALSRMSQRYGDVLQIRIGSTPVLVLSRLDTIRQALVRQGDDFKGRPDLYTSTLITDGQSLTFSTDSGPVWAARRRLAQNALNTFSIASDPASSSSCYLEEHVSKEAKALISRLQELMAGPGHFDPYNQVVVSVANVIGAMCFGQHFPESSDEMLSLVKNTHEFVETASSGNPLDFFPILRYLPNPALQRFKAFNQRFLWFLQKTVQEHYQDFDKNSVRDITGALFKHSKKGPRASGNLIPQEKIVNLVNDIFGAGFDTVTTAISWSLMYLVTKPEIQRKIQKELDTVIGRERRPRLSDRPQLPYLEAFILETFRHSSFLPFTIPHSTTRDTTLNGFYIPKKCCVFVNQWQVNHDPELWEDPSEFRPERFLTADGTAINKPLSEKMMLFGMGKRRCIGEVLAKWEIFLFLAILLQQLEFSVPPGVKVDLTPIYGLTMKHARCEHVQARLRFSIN

Cytochrome P450 2B6 = molecular target: T2, Cytochrome P450 2B6 (Homo sapiens, UniProt P20813); assay: Inhibition of human hepatic CYP2B6; type: ADME, tissue-based, Liver
T2 sequence (P20813 whole entry): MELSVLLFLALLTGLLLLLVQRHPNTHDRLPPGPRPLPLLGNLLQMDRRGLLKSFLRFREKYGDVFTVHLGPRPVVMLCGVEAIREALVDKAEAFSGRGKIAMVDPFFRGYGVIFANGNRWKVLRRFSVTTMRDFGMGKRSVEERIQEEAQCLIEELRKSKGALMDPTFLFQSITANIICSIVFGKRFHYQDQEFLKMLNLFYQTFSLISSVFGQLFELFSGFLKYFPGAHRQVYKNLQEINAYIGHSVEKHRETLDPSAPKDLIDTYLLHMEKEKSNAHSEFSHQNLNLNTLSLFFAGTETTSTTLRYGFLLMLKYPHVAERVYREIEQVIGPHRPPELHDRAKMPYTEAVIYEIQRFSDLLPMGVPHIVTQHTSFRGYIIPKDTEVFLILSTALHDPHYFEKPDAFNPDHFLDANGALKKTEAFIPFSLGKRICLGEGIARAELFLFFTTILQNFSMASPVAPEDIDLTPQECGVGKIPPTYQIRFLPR

Cytochrome P450 3A4 = Cytochrome P450 3A4 (Homo sapiens, UniProt P08684); assay: Inhibition of human hepatic CYP3A4; type: ADME, tissue-based, Liver
Cytochrome P450 2C9 = Cytochrome P450 2C9 (Homo sapiens, UniProt P11712); assay: Inhibition of human hepatic CYP2C9; type: ADME, tissue-based, Liver
[15] = Toxicity in mouse assessed as change in body weight at 1.5 g/Kg, po; details: in vivo, 1500 mg/kg
[16] = Solubility of the compound in deionized water; type: physicochemical
Rattus norvegicus [17] = assay: Anti-idiopathic pulmonary fibrotic activity in bleomycin-induced Sprague-Dawley rat model assessed as reversal of mid-expiratory flow at 10 mg/kg, po treated for 28 consecutive days relative to control; type: functional, organism-based
Rattus norvegicus [18] = assay: Anti-idiopathic pulmonary fibrotic activity in bleomycin-induced Sprague-Dawley rat model assessed as prevention of structural damage of lungs at 10 mg/kg, po treated for 28 consecutive days by Hematoxylin and eosin staining based assay relative to control; type: functional, organism-based
Rattus norvegicus [19] = assay: Anti-idiopathic pulmonary fibrotic activity in bleomycin-induced Sprague-Dawley rat model assessed as decrease in alpha-smooth muscle actin protein expression of lungs at 10 mg/kg, po treated for 28 consecutive days by Western blot analysis; type: functional, organism-based
Rattus norvegicus [20] = assay: Anti-idiopathic pulmonary fibrotic activity in bleomycin-induced Sprague-Dawley rat model assessed as decrease in fibronectin expression of lungs at 10 mg/kg, po treated for 28 consecutive days by Western blot analysis; type: functional, organism-based
Rattus norvegicus [21] = assay: Anti-inflammatory activity in bleomycin-induced idiopathic pulmonary fibrotic activity Sprague-Dawley rat model assessed as decrease in NO production in lungs at 10 mg/kg, po treated for 28 consecutive days; type: functional, organism-based
A549 [22] = assay: Anti-idiopathic pulmonary fibrotic activity in human A549 cells assessed as reduction in TGF-beta-induced N-cadherin expression measured after 48 hrs by Western blot analysis; type: functional, cell-based; details: dose 10-20 µM
A549 [23] = assay: Anti-idiopathic pulmonary fibrotic activity in human A549 cells assessed as reduction in TGF-beta-induced vimentin expression measured after 48 hrs by Western blot analysis; type: functional, cell-based; details: dose 10-20 µM
A549 [24] = assay: Anti-idiopathic pulmonary fibrotic activity in human A549 cells assessed as reduction in TGF-beta-induced fibronectin expression measured after 48 hrs by Western blot analysis; type: functional, cell-based; details: dose 10-20 µM

Chain of Voltage-gated inwardly rectifying potassium channel KCNH2 (Q12809 whole entry): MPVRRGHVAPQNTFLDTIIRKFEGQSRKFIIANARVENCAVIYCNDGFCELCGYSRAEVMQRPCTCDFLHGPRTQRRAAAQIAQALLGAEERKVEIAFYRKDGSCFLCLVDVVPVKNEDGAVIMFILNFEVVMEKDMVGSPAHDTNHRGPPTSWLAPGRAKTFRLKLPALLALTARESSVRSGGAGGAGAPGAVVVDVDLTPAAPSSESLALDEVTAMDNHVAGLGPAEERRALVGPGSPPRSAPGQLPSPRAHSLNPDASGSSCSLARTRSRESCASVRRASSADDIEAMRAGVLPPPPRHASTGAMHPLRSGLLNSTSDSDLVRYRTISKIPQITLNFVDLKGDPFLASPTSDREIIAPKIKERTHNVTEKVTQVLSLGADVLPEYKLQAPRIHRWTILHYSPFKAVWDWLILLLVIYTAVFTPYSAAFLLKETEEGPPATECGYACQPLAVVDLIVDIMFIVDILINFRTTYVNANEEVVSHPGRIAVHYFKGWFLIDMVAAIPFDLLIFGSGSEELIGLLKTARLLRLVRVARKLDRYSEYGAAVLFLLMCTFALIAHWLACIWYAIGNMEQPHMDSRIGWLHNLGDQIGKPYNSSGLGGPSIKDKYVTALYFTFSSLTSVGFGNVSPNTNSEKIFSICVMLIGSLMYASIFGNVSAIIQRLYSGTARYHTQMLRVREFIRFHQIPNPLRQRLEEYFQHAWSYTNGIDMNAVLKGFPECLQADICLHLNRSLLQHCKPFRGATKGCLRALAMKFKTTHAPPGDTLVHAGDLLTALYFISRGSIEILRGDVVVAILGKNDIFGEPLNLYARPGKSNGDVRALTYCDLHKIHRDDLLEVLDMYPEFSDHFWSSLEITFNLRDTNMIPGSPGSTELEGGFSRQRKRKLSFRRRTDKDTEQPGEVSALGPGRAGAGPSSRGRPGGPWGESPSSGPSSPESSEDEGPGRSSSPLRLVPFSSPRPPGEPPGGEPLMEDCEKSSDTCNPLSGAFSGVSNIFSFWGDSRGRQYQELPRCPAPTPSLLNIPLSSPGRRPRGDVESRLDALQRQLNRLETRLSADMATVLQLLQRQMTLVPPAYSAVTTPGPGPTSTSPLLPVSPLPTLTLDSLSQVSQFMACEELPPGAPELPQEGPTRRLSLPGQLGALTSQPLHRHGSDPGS
Chain of High affinity cAMP-specific and IBMX-insensitive 3',5'-cyclic phosphodiesterase 8A (O60658 whole entry): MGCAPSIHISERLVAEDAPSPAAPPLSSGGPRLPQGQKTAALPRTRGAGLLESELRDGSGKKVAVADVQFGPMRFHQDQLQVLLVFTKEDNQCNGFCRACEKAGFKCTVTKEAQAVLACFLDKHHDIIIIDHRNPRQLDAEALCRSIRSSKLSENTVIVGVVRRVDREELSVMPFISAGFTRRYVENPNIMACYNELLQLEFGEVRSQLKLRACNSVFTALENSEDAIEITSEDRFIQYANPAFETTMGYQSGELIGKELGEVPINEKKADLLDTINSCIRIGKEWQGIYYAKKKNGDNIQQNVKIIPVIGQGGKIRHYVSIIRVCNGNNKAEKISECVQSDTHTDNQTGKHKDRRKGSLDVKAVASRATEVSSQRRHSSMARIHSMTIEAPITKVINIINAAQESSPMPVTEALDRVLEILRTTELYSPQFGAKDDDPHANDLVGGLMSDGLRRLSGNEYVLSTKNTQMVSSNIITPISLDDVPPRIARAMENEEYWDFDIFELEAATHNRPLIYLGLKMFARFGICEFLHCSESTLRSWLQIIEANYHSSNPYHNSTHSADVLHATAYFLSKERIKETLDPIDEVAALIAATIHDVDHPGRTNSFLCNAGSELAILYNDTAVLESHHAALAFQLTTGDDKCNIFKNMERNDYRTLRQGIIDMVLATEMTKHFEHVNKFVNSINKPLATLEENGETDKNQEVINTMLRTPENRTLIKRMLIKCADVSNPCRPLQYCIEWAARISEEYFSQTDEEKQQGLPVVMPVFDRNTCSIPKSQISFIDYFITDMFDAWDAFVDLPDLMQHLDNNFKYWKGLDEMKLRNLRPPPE
Chain of cAMP and cAMP-inhibited cGMP 3',5'-cyclic phosphodiesterase 10A (Q9Y233 whole entry): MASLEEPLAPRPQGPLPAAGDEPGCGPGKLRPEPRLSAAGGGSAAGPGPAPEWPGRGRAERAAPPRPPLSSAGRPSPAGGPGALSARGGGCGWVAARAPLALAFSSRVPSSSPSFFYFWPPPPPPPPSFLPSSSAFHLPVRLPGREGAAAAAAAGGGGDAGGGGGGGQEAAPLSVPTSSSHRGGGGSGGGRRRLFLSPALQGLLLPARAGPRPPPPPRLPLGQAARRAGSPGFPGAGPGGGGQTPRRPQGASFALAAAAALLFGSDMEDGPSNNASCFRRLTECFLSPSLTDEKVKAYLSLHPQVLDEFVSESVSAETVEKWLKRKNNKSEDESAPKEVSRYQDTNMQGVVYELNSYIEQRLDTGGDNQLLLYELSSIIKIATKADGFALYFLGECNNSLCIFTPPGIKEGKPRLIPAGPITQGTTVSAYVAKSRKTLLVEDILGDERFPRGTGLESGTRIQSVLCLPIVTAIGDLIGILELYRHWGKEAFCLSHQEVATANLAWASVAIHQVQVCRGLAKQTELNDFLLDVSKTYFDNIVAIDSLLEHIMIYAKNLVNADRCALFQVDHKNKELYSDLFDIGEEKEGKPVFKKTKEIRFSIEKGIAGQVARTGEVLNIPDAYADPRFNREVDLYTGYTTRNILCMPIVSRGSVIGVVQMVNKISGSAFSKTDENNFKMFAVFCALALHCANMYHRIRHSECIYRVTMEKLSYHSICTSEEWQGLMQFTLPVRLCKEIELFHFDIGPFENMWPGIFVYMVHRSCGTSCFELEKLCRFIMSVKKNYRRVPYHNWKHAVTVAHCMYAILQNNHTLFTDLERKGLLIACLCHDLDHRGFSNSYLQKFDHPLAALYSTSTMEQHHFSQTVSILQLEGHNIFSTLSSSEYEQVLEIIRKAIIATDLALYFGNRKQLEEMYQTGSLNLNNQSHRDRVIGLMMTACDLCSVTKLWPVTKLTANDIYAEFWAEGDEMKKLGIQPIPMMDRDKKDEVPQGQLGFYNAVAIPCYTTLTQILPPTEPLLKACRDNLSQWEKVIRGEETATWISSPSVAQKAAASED
Chain of cGMP-inhibited 3',5'-cyclic phosphodiesterase 3A (Q14432 whole entry): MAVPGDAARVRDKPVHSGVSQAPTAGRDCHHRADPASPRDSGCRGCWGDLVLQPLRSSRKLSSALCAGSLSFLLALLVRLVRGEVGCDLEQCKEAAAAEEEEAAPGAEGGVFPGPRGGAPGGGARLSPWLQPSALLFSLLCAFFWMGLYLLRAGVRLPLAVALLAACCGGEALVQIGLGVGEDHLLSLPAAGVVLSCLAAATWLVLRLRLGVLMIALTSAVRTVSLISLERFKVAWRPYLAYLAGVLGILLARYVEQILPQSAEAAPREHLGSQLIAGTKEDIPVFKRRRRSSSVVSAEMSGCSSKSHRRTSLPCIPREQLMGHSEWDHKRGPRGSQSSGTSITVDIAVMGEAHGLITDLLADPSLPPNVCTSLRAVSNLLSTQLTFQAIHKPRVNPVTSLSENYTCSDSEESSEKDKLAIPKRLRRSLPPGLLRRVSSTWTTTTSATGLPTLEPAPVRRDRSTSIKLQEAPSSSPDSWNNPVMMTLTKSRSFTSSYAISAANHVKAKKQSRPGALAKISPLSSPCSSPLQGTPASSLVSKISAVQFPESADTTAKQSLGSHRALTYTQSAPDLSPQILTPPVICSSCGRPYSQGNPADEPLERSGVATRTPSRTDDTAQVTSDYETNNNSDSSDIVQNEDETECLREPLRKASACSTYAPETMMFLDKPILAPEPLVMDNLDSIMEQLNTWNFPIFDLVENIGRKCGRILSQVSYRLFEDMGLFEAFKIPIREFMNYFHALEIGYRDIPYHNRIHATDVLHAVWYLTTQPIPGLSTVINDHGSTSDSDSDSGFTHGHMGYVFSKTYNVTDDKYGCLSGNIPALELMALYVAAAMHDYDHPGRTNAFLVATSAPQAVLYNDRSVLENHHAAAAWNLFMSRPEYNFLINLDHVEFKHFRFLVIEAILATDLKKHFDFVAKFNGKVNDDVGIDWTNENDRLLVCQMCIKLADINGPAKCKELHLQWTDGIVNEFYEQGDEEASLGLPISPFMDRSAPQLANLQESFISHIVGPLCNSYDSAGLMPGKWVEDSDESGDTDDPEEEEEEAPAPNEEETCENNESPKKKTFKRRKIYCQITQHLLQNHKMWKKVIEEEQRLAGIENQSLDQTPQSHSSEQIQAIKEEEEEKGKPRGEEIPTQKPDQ
Chain of Cytochrome P450 2C9 (P11712 whole entry): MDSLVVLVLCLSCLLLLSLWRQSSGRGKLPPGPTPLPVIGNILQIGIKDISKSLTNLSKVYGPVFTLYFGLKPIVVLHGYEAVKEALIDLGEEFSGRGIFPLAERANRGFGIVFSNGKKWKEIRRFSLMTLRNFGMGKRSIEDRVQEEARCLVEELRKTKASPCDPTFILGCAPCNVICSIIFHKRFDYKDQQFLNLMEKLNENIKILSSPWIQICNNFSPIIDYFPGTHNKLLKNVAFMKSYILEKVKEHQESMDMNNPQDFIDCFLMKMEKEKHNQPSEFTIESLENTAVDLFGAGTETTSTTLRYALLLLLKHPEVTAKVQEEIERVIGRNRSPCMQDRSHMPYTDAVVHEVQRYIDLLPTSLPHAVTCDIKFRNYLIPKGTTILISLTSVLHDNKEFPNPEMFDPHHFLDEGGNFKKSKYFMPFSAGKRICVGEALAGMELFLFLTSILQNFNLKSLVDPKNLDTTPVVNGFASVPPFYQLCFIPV

COc1c(OCc2ccc(F)cc2)cc2oc3cc4c(c(OC/C=C/C(=O)O)c3c(=O)c2c1CC=C(C)C)C=CC(C)(C)O4
IC50 [1]: 0.14 µM
IC50 [2]: > 10 µM
IC50 [3]: 0.71 µM
IC50 [4]: > 10 µM
IC50 [5]: 0.26 µM
half-life [6]: 1.55 h
half-life [7]: 1.02 h
Tmax [8]: 1 h
Cmax [9]: 3850 ng/mL
AUC(0-t) [10]: 8420 ng·h/mL
AUC(0-t) [11]: 2090 ng·h/mL
AUC(0-inf) [12]: 8460 ng·h/mL
AUC(0-inf) [13]: 2110 ng·h/mL
IC50 [14]: > 40 µM
IC50 (Cytochrome P450 1A2): > 25 µM
IC50 (Cytochrome P450 2B6): > 25 µM
IC50 (Cytochrome P450 3A4): > 25 µM
IC50 (Cytochrome P450 2C9): 1.7 µM
Activity [15]: Non-Toxic
solubility [16]: 1.1 µg/mL (≈ 1.83 µM)
Activity (Rattus norvegicus [17]): Active
Activity (Rattus norvegicus [18]): Active
Activity (Rattus norvegicus [19]): Active
Activity (Rattus norvegicus [20]): Active
Activity (Rattus norvegicus [21]): Active
Activity (A549 [22]): Dose-Dependent Effect
Activity (A549 [23]): Dose-Dependent Effect
Activity (A549 [24]): Dose-Dependent Effect
